≈ marks a conversion by molar mass, not a printed value.
Tests used:
in vitro = details: human
physchem = details: 30 °C, pH 7, aqueous buffer, thermodynamic from solid
[1] = tested on: PPO enzyme (E.C. 1.10.3.1) from banana (Musa sapientum) skin; assay: test of potential melanogenic substrates of banana PPO (pigment formation vs blank); type: biochemical; details: pH 7
[2] = tested on: cultured human foreskin fibroblasts
HSV-1 = assay: microbe, parasite or virus in culture; type: cell-based; details: Human alphaherpesvirus 1, HFF, read-out: ACV EC50
HSV-2 = assay: microbe, parasite or virus in culture; type: cell-based; details: Human alphaherpesvirus 2, HFF, read-out: ACV EC50

| Molecule | solubility (physchem) [µg/mL] | PPO Substrate [1] | further results |
| --- | --- | --- | --- |
| Nc1nc(O)c2ncn(COC(CO)CO)c2n1 [GCV, ganciclovir] |  |  | CC50 (in vitro): > 100 µg/mL |
| Oc1cccc(O)c1O [Pyrogallol, 1,2,3-trihydroxvbenzene] | < 2000 |  |  |
| O=C(O)c1ccc(O)c(O)c1 [Protocatechuric acid, 3,4-dihydroxybenzoic acid] | > 2000 | Y |  |
| O=C(O)c1cc(O)c(O)c(O)c1 [Gallic acid, 3,4,5-trihydroxybenzoic acid] | < 2000 |  |  |
| O=C1c2ccccc2C(=O)c2c1ccc(O)c2O [Alizarin, 1,2-dihydroxy-anthraquinone] | < 2000 | Y |  |
| NCCc1c[nH]c2ccc(O)cc12 [Serotonin, 5-hydroxytryptamine] |  | Y |  |
| Nordihydroguaiuretic acid |  |  | Toxicity [2]: N |
| O=c1ccc2cc(O)c(O)cc2o1 [Esculetin, 6,7 Dihydroxvcoumarin] | < 2000 | Y |  |
| O=c1c(O)c(-c2ccc(O)c(O)c2)oc2cc(O)cc(O)c12 [Quercetin, 2-(3,4-dihydroxyphenyl)-3,5,7-trihydroxy-4H-1-benzopyran-4-one] | < 2000 |  |  |
| 5,6,7 trihydroxyflavanone [Baicalein] |  | Y |  |
| Nc1nc2c(ncn2COCCO)c(=O)[nH]1 [ACV, Acyclovir] |  |  | EC50 (HSV-1): 1.1 µg/mL (≈ 0.00488 mM); EC50 (HSV-2): 1.4 µg/mL (≈ 0.00622 mM); CC50 (in vitro): > 100 µg/mL |
| O=C(O)Cc1ccc(O)c(O)c1 [DOPAC, 3,4-dihydroxyphenylacetic acid] | > 2000 |  |  |
| O=C(O)C=Cc1ccc(O)c(O)c1 [Caffeic acid, 3,4-dihydroxycinnamic acid] | > 2000 |  |  |

Reference: patent US8673983B2, “Melanins synthesized chemically or via enzyme catalysis” (priority 2007, dated 2014)
